The nature of one data set: physchem. The data set is classed as physicochemical. The following applies: pH 7.4. How it is done:
The logD (pH 7.4) value was determined according to a literature procedure ([32]). Briefly, a 10-μl solution of [^68Ga]AJ647 (around 10 μCi) was added to a solution of 1-octanol (200 μl) mixed with phosphate-buffered saline (PBS) (190 μl) in a 1.5-ml centrifuge tube. After the mixture was vigorously shaken and vortexed, it was centrifuged at 3000 rpm for 5 min. Aliquots (10 μl) were removed from both phases, and the radioactivity was measured on an automated gamma counter (1282 Compugamma CS, Pharmacia/LKB Nuclear Inc., Gaithersburg, MD). The logD was calculated as the average log ratio value of the radioactivity in the 1-octanol fraction and the PBS fraction from the three samples.

In data set [1] the test system is HT1376 cells. The data set can be described thus: In vitro binding of [^68Ga]AJ647 to HT1376 cells. The data set is classed as cell-based. The note with it: 1 × 10^6 cells, ~1 μCi, 30 min, 4°C, means ± SD, n = 4. How it is done:
(§1) In vitro binding of [^68Ga]AJ647 to T24, SCaBER, RT112, UC9, UC14, and HT1376 cells was determined by incubating 1 × 10^6 cells with ~1 μCi of [^68Ga]AJ647 for 30 min at 4°C. After incubation, cells were washed three times with ice-cold PBS containing 0.1% Tween 20 and counted on an automated gamma counter. All cell radioactivity uptake studies were performed in quadruplicate for each cell line and repeated three times.

The test system of the next data set is RT112 cells. The data set can be described thus: In vitro binding of [^68Ga]AJ647 to RT112 cells. The class given is cell-based. The note with it: 1 × 10^6 cells, ~1 μCi, 30 min, 4°C, means ± SD, n = 4. How it is done: as §1
Data set [2] deals with T24 cells. Nature of the data set: In vitro binding of [^68Ga]AJ647 to T24 cells. The data set is classed as cell-based. The note with it: T24 (low Nectin-4); 1 × 10^6 cells, ~1 μCi, 30 min, 4°C; means ± SD, n = 4. How it is done: as §1
Data set [3] relates to HT1376 cells. Nature of the data set: [^68Ga]AJ647 binding after EV preincubation, HT1376 cells. The class given is cell-based. The following applies: EV 60 nM preincubated 30 min, P < 0.0001. How it is done:
(§2) An FITC analog of EV was made using the manufacturer’s recommended protocol (Thermo Fisher Scientific, no. 46409). Briefly, 1 mg of EV was incubated with FITC-NHS ester at a 5:1 molar ratio overnight at 4°C at 0.1 M borate buffer (pH 8.0). Excess unbound FITC-NHS ester was washed off by performing buffer exchange with 1× PBS using three rounds of ultracentrifugation at 4000g for 10 min (3-kDa molecular weight cutoff filter, Amicon, no. UFC900308). The effect of nonradioactive AJ647 on EV binding to Nectin-4 was assessed by incubating HT1376 cells at varying concentrations (5.4 μM to 0.01 nM using a serial dilution) of AJ647 for 30 min at 4°C. Unbound AJ647 was washed off using 3 ml of cold PBS. Cells were incubated with EV-FITC for 30 min at 4°C. Excess EV-FITC was washed off using 3 ml of cold PBS. The mean fluorescence intensity was measured using a flow cytometer, and data are reported as the percentage of 0 nM AJ647. For the effect of EV on [^68Ga]AJ647 binding, EV was used at concentrations of 90 to 0.04 nM using serial dilutions for 30 min at 4°C. Unbound EV was washed off using cold PBS. Then, cells were incubated with 1 μCi of [^68Ga]AJ647 for an additional 30 min. Excess [^68Ga]AJ647 was washed off three times with cold PBS. Samples were read in an automated gamma counter, and data are reported as the percentage of 1-μCi standard counts.

The test system of a further data set is SCaBER cells. Nature of the data set: [^68Ga]AJ647 binding after EV preincubation, SCaBER cells. The class given is cell-based. The note with it: EV 60 nM preincubated 30 min, P < 0.0001. How it is done: as §2
Data set [4] concerns T24 cells. Nature of the data set: [^68Ga]AJ647 binding after EV preincubation, T24 cells. The data set is classed as cell-based. The following applies: T24 (Nectin-4-negative); EV 60 nM preincubated 30 min. How it is done: as §2
Another data set relates to HT1376 tumors. The data set can be described thus: Pilot in vivo EV effect on tumor uptake of [^68Ga]AJ647, HT1376 tumors. The arrangement: species or system NSG mice. The following applies: EV 20 mg/kg i.v. single dose, 24 hours before tracer, ex vivo 60 min, n = 5. How it is done: (§3) Male NSG mice were implanted subcutaneously with HT1376 and SCaBER cells (4 million each) on the right and left rostral ends, respectively. On day 25 after cell inoculation (average tumor volume, 200 ± 35 mm^3), mice were randomized and treated with a single dose of either saline or EV ADC (20 mg/kg) injected intravenously (volume not exceeding 300 μl) or with 200 μl of saline (n = 7 per group). Twenty-four hours following the EV dose, [^68Ga]AJ647 PET scans (n = 2 per group) were acquired, and ex vivo biodistribution (n = 5 per group) was performed using the protocols mentioned above.

Another data set deals with SCaBER tumors. The data set can be described thus: Pilot in vivo EV effect on tumor uptake of [^68Ga]AJ647, SCaBER tumors. The note with it: EV 20 mg/kg i.v. single dose, 24 hours before tracer, ex vivo 60 min, n = 5. On the set-up: species or system NSG mice. How it is done:
as §3

For data set [5] the following is noted: 1.25 mg/kg dose level; cited from earlier work. From the text: Focusing on EV, an FDA-approved ADC targeting Nectin-4 ([11]), we aimed to test whether PET-measured target engagement (TE) could better define the relationships among dose, exposure, and therapeutic response. […] Adjustments in the dosage were more ...
The conditions of data set [6]: lowest exposure (Cavg) quartile; cited from earlier work. From the text: Real-time assessment of tumor heterogeneity remains a critical challenge in optimizing targeted therapies. Despite the importance of sensitive assays for real-time insights into drug-tumor interactions, such tools remain limited ([6], [25]). Model-based approaches that integrate nonclinical and clinical data—such as PK and PD parameters—can facilitate efficacy and safety predictions ([26]). However, these models often fail to fully account for the dynamic complexities of tumor heterogeneity and intrinsic factors that affect drug PK/PD, especially in real time. This is particularly true for mac ...

A word on the logD: it is lipophilicity at a set pH, counting ionised and neutral species. High values mean higher lipophilicity, low ones lower lipophilicity. Turning to `CSCC[C@@H]1NC(=O)[C@@H]2CSCCC(=O)N3CN(CN(C3)C(=O)CCSC[C@H](NC(=O)CCOCCOCCOCCOCCOCCOCCOCCOCCOCCOCCOCCOCCNC(=O)CN3CCN(CC(=O)O)CCN(CC(=O)O)CC3)C(=O)N3CCC[C@H]3C(=O)N[C@@H](Cc3cccc4ccccc34)C(=O)N[C@@H](CC(=O)O)C(=O)N2)C(=O)CCSC[C@@H](C(N)=O)NC(=O)[C@H](Cc2c[nH]c3ccccc23)NC(=O)[C@@H]2C[C@@H](O)CN2C(=O)[C@@H]2CCCN2C(=O)[C@H]([C@@H](C)O)NC(=O)[C@H](CO)NC(=O)[C@H](Cc2c[nH]c3ccccc23)NC(=O)[C@@H](CC(=O)O)NC(=O)[C@H](CCCCNC(=N)N)NC1=O` [[^68Ga]AJ647, metal not drawn], the logD in “physchem” was -2.06 ± 0.17. For the same compound, the “[^68Ga]AJ647 uptake” value with HT1376 cells [1] is on record as 6.5 ± 0.52 %IA; in the data set with RT112 cells, 1.9 ± 0.18 %IA; in the data set with T24 cells [2], 0.2 ± 0.11 %IA.
Regarding enfortumab vedotin [EV], the “effect on [^68Ga]AJ647 binding” value in the data set with HT1376 cells [3] was “significantly reduced [^68Ga]AJ647 binding”; in the data set with SCaBER cells it was “significantly reduced [^68Ga]AJ647 binding”; in the data set with T24 cells [4], “but not in Nectin-4–negative T24 cells”. Further, the “reduction in [^68Ga]AJ647 tumor uptake vs saline controls” value is 84% in the data set on HT1376 tumors and 72% in the data set on SCaBER tumors. For the same compound, the “patients needing dosage adjustments” value in [5] is listed as “more than 32%”. In [6], the response rate is reported as 32%.

The record behind these values is paper PMC12778052 (Science Advances, 2026).
